In experiment [1] the target is T1, EcPBP3 (Escherichia coli, UniProt P0AD68).
T1 construct: For assays, selections and SPR a construct with residues 60–588 which has the N-terminal domain, but not the transmembrane helix, was used; made in house
Nature of the experiment: Fluorescence polarisation competition assay with fluorescent Bicycle tracer (tracer 1 / BCY12820). Format: binding. Conditions: protein 9.4 nM sets sensitivity limit, top concentration 5 µM, read-out: Ki (nM) by fluorescence polarisation with tracer 1 (BCY12820 as tracer), Geometric mean (Lower 95% CI; Upper 95% CI, n=number of values). Here is the method:
Competition fluorescence polarisation assays were run by observing the fluorescence polarisation of a fluorescent “tracer” Bicycle molecule which competes against an unlabelled peptide for binding to the EcPBP3 target. 10 µL of protein (9.4 nM) was mixed with either 5 µL of peptide or 5 µL of buffer and then the assay was initiated by the addition of 10 µL of tracer (1 nM) (final volume 25 µL), in a black 384 low bind, low volume plate (Corning). The buffer was 10 mM HEPES (Sigma), 2% (v/v) glycerol (Sigma), 300 mM NaCl (Sigma), adjusted to pH 8. The plate was incubated for 1 h at 25 °C and then read in a PHERAstar FS (BMG) using with an “FP 485 520 520” optic module (excitation 485 nm, emission 520 nm). The gain was determined immediately prior to the read on a tracer-only well.
Dotmatics (Dotmatics) workflows performing the above calculations were used to process the data. Values quoted are the geometric means of at least 2 repeats.
Background: Polarisation of emitted light reports the rotation of a fluorescent probe.

The target in experiment [2] is T1, EcPBP3. Kind of experiment: SPR binding assay on immobilised EcPBP3. The following applies: 37 °C, kinetic fitting; NB = no binding at 2500 nM (Tables S-4, S-5) or 5000 nM (Table 1); read-out: Kd (nM) by SPR (geomean). The protocol:
Surface plasmon resonance (SPR) assays were performed using EcPBP3 immobilized on CM5 sensor chips (GE Healthcare) via amine-coupling chemistry in assay buffer (10 mM HEPES pH 8.0, 200 mM NaCl, 0.05% (v/v) surfactant P20). The chip surface was activated by injection (10 μL min^–1) of 0.4 M EDC and 0.1 M NHS (in a 1:1 ratio) with a 7 min contact time. Protein was diluted to 25 μg mL^–1 in 10 mM MOPS (pH 7.0) and injected over the activated sensor chip surface to reach immobilization of 1500-2500 response units. Excess hydroxysuccinimidyl groups on the chip surface were deactivated by injection (10 μL min^–1) of 1 M ethanolamine hydrochloride pH 8.0 with a 7 min contact time. Reference flow cells were prepared as described, but without ligand (EcPBP3 protein).
Binding analysis runs were performed at 37 °C in running buffer (10 mM HEPES pH 8.0, 200 mM NaCl, 0.05% (w/v) Tween-20, 2% (v/v) DMSO). Test compounds (and control runs of buffer only) were injected in running buffer over the EcPBP3 chip and reference flow cell, at flow rate of 50 μL min^–1 for 150 s contact time and 2400 s dissociation time. Each injection was followed by a wash with 50% (v/v) DMSO. All compounds were tested in at least two independent biological replicates unless otherwise stated.
Raw sensorgrams data were solvent-corrected, reference-subtracted and blank-buffer-subtracted (double-referencing) before kinetic and affinity analysis to account for non-specific binding and injection artifacts. Equilibrium dissociation constant (Kd) values was determined using the Biacore™ Insight Evaluation Software (version 4.0.8 or version 5.0.17) using kinetic fitting. Kd values presented are the geometric mean of at least two biological replicates.
On the technique in general: Surface plasmon resonance follows binding to a sensor surface in real time, without labels.

Structures are written as SMILES. Where a SMILES comes first, the peptide text is derived from it. Bounds are passed on as bounds.

T1 sequence (P0AD68 60-588): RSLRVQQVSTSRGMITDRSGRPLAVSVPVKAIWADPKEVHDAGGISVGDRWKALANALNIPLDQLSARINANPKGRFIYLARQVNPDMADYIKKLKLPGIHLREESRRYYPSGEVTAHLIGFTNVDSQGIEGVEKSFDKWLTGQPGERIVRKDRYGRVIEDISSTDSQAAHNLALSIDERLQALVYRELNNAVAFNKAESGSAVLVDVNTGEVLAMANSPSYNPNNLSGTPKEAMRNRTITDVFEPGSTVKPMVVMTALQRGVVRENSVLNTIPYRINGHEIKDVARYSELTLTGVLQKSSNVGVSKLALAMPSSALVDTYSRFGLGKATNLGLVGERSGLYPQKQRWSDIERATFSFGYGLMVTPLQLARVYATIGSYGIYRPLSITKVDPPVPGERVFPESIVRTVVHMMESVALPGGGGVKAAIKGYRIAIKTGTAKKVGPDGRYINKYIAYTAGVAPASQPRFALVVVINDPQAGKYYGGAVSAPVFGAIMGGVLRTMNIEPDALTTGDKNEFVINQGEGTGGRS

In general, Ki refers to the dissociation constant of the complex between target and ligand, obtained from inhibition or displacement. Regarding `CC(C)[C@@H]1NC(=O)[C@H](Cc2c[nH]c3ccccc23)NC(=O)[C@@H]2CCCN2C(=O)[C@@H]2CSCCC(=O)N3CN(CN(C3)C(=O)CCSC[C@H](NC(=O)[C@H](C)N)C(=O)NCC(=O)N[C@@H](Cc3ccccc3)C(=O)N3CCC[C@H]3C(=O)N[C@@H](CCCCNC(=N)N)C(=O)N2)C(=O)CCSC[C@@H](C(=O)N[C@@H](C)C(N)=O)NC(=O)CNC(=O)[C@H](CCC(=O)O)NC1=O` [Peptide 26] (HELM PEPTIDE1{A.C.G.F.P.[N=C(N)NCCCC[C@H](N[*:1])C(=O)[*:2]].C.P.W.V.E.G.C.A.[am]}|CHEM1{[O=C(CC[*:1])N1CN(C(=O)CC[*:2])CN(C(=O)CC[*:3])C1]}$PEPTIDE1,CHEM1,2:R3-1:R1|PEPTIDE1,CHEM1,7:R3-1:R2|PEPTIDE1,CHEM1,13:R3-1:R3$$$V2.0), the Ki on EcPBP3 [1] came to 17.1 nM. On the same count and under the same terms, with `CC(C)[C@@H]1NC(=O)[C@H](Cc2c[nH]c3ccccc23)NC(=O)[C@@H]2CCCN2C(=O)[C@@H]2CSCCC(=O)N3CN(CN(C3)C(=O)CCSC[C@H](NC(=O)[C@H](C)N)C(=O)N[C@@H](CC(N)=O)C(=O)N[C@@H](Cc3ccccc3)C(=O)N3CCC[C@H]3C(=O)N[C@@H](CCCCNC(=N)N)C(=O)N2)C(=O)CCSC[C@@H](C(=O)N[C@@H](C)C(N)=O)NC(=O)CNC(=O)[C@H](CCC(=O)O)NC1=O` [Peptide 29] (HELM PEPTIDE1{A.C.N.F.P.[N=C(N)NCCCC[C@H](N[*:1])C(=O)[*:2]].C.P.W.V.E.G.C.A.[am]}|CHEM1{[O=C(CC[*:1])N1CN(C(=O)CC[*:2])CN(C(=O)CC[*:3])C1]}$PEPTIDE1,CHEM1,2:R3-1:R1|PEPTIDE1,CHEM1,7:R3-1:R2|PEPTIDE1,CHEM1,13:R3-1:R3$$$V2.0) the figure was less than 9 nM; with `CC(C)[C@@H]1NC(=O)[C@H](Cc2c[nH]c3ccccc23)NC(=O)[C@@H]2CCCN2C(=O)[C@@H]2CSCCC(=O)N3CN(CN(C3)C(=O)CCSC[C@H](NC(=O)[C@H](C)N)C(=O)N[C@@H](CCC(N)=O)C(=O)N[C@@H](Cc3ccccc3)C(=O)N3CCC[C@H]3C(=O)N[C@@H](CCCCNC(=N)N)C(=O)N2)C(=O)CCSC[C@@H](C(=O)N[C@@H](C)C(N)=O)NC(=O)CNC(=O)[C@H](CCC(=O)O)NC1=O` [Peptide 30] (HELM PEPTIDE1{A.C.Q.F.P.[N=C(N)NCCCC[C@H](N[*:1])C(=O)[*:2]].C.P.W.V.E.G.C.A.[am]}|CHEM1{[O=C(CC[*:1])N1CN(C(=O)CC[*:2])CN(C(=O)CC[*:3])C1]}$PEPTIDE1,CHEM1,2:R3-1:R1|PEPTIDE1,CHEM1,7:R3-1:R2|PEPTIDE1,CHEM1,13:R3-1:R3$$$V2.0), less than 9 nM; with `CC(C)[C@@H]1NC(=O)[C@H](Cc2c[nH]c3ccccc23)NC(=O)[C@@H]2CCCN2C(=O)[C@@H]2CSCCC(=O)N3CN(CN(C3)C(=O)CCSC[C@H](NC(=O)[C@H](C)N)C(=O)N[C@@H](CCC(=O)O)C(=O)N[C@@H](Cc3ccccc3)C(=O)N3CCC[C@H]3C(=O)N[C@@H](CCCCNC(=N)N)C(=O)N2)C(=O)CCSC[C@@H](C(=O)N[C@@H](C)C(N)=O)NC(=O)CNC(=O)[C@H](CCC(=O)O)NC1=O` [Peptide 31] (HELM PEPTIDE1{A.C.E.F.P.[N=C(N)NCCCC[C@H](N[*:1])C(=O)[*:2]].C.P.W.V.E.G.C.A.[am]}|CHEM1{[O=C(CC[*:1])N1CN(C(=O)CC[*:2])CN(C(=O)CC[*:3])C1]}$PEPTIDE1,CHEM1,2:R3-1:R1|PEPTIDE1,CHEM1,7:R3-1:R2|PEPTIDE1,CHEM1,13:R3-1:R3$$$V2.0), less than 9 nM. As to `CC(C)[C@@H]1NC(=O)[C@H](Cc2c[nH]c3ccccc23)NC(=O)[C@@H]2CCCN2C(=O)[C@@H]2CSCCC(=O)N3CN(CN(C3)C(=O)CCSC[C@H](NC(=O)[C@H](C)N)C(=O)N[C@@H](CO)C(=O)N[C@@H](Cc3c[nH]cn3)C(=O)N3CCC[C@H]3C(=O)N[C@@H](CCCCNC(=N)N)C(=O)N2)C(=O)CCSC[C@@H](C(=O)N[C@@H](C)C(N)=O)NC(=O)CNC(=O)[C@H](CCC(=O)O)NC1=O` [Peptide 32] (HELM PEPTIDE1{A.C.S.H.P.[N=C(N)NCCCC[C@H](N[*:1])C(=O)[*:2]].C.P.W.V.E.G.C.A.[am]}|CHEM1{[O=C(CC[*:1])N1CN(C(=O)CC[*:2])CN(C(=O)CC[*:3])C1]}$PEPTIDE1,CHEM1,2:R3-1:R1|PEPTIDE1,CHEM1,7:R3-1:R2|PEPTIDE1,CHEM1,13:R3-1:R3$$$V2.0), the Ki at EcPBP3 [1] was determined as 115 nM. Still for that read-out and setting: with `CC(C)[C@@H]1NC(=O)[C@H](Cc2c[nH]c3ccccc23)NC(=O)[C@@H]2CCCN2C(=O)[C@@H]2CSCCC(=O)N3CN(CN(C3)C(=O)CCSC[C@H](NC(=O)[C@H](C)N)C(=O)N[C@@H](CO)C(=O)N[C@@H](Cc3ccccc3)C(=O)NCC(=O)N[C@@H](CCCCNC(=N)N)C(=O)N2)C(=O)CCSC[C@@H](C(=O)N[C@@H](C)C(N)=O)NC(=O)CNC(=O)[C@H](CCC(=O)O)NC1=O` [Peptide 33] (HELM PEPTIDE1{A.C.S.F.G.[N=C(N)NCCCC[C@H](N[*:1])C(=O)[*:2]].C.P.W.V.E.G.C.A.[am]}|CHEM1{[O=C(CC[*:1])N1CN(C(=O)CC[*:2])CN(C(=O)CC[*:3])C1]}$PEPTIDE1,CHEM1,2:R3-1:R1|PEPTIDE1,CHEM1,7:R3-1:R2|PEPTIDE1,CHEM1,13:R3-1:R3$$$V2.0) the figure was 53.5 nM; with `CC(C)[C@@H]1NC(=O)[C@H](Cc2c[nH]c3ccccc23)NC(=O)[C@@H]2CCCN2C(=O)[C@@H]2CSCCC(=O)N3CN(CN(C3)C(=O)CCSC[C@H](NC(=O)[C@H](C)N)C(=O)N[C@@H](CO)C(=O)N[C@@H](Cc3ccccc3)C(=O)N[C@@H](Cc3ccc(O)cc3)C(=O)N[C@@H](CCCCNC(=N)N)C(=O)N2)C(=O)CCSC[C@@H](C(=O)N[C@@H](C)C(N)=O)NC(=O)CNC(=O)[C@H](CCC(=O)O)NC1=O` [Peptide 34] (HELM PEPTIDE1{A.C.S.F.Y.[N=C(N)NCCCC[C@H](N[*:1])C(=O)[*:2]].C.P.W.V.E.G.C.A.[am]}|CHEM1{[O=C(CC[*:1])N1CN(C(=O)CC[*:2])CN(C(=O)CC[*:3])C1]}$PEPTIDE1,CHEM1,2:R3-1:R1|PEPTIDE1,CHEM1,7:R3-1:R2|PEPTIDE1,CHEM1,13:R3-1:R3$$$V2.0), 27.1 nM. Take `CC(C)[C@@H]1NC(=O)[C@H](Cc2c[nH]c3ccccc23)NC(=O)[C@@H]2CCCN2C(=O)[C@@H]2CSCCC(=O)N3CN(CN(C3)C(=O)CCSC[C@H](NC(=O)[C@H](C)N)C(=O)N[C@@H](CO)C(=O)N[C@@H](Cc3ccccc3)C(=O)N[C@@H](CO)C(=O)N[C@@H](CCCCNC(=N)N)C(=O)N2)C(=O)CCSC[C@@H](C(=O)N[C@@H](C)C(N)=O)NC(=O)CNC(=O)[C@H](CCC(=O)O)NC1=O` [Peptide 35] (HELM PEPTIDE1{A.C.S.F.S.[N=C(N)NCCCC[C@H](N[*:1])C(=O)[*:2]].C.P.W.V.E.G.C.A.[am]}|CHEM1{[O=C(CC[*:1])N1CN(C(=O)CC[*:2])CN(C(=O)CC[*:3])C1]}$PEPTIDE1,CHEM1,2:R3-1:R1|PEPTIDE1,CHEM1,7:R3-1:R2|PEPTIDE1,CHEM1,13:R3-1:R3$$$V2.0): the Ki at EcPBP3 [1] stood at 53.4 nM.

By Kd is commonly meant the equilibrium constant for the complex coming apart. As for `C[C@H](N)C(=O)N[C@H]1CSCCC(=O)N2CN3CN(C2)C(=O)CCSC[C@H](NC(=O)[C@H](CCCCN)NC(=O)[C@@H]2CCCN2C(=O)[C@H](Cc2ccccc2)NC(=O)[C@H](CO)NC1=O)C(=O)N1CCC[C@H]1C(=O)N[C@@H](Cc1c[nH]c2ccccc12)C(=O)N[C@@H](C1CCC1)C(=O)N[C@@H](CCC(=O)O)C(=O)NCC(=O)N[C@H](C(=O)N[C@@H](C)C(N)=O)CSCCC3=O` [Peptide 68] (HELM PEPTIDE1{A.C.S.F.P.K.C.P.W.[O=C([C@@H](N[*:1])C1CCC1)[*:2]].E.G.C.A.[am]}|CHEM1{[O=C(CC[*:1])N1CN(C(=O)CC[*:2])CN(C(=O)CC[*:3])C1]}$PEPTIDE1,CHEM1,2:R3-1:R1|PEPTIDE1,CHEM1,7:R3-1:R2|PEPTIDE1,CHEM1,13:R3-1:R3$$$V2.0), the Kd on EcPBP3 [2] was 187 nM.

Source of the values: paper PMC12120022, “Discovery and chemical optimisation of a potent, Bi-cyclic antimicrobial inhibitor of Escherichia coli PBP3” (Communications Biology, 2025).
